This is an account of results in patent publication US11141455B2, “Peptide analogues with branched amino acid probe(s)” (priority 2014, dated 2021).

The target in assay [1] is T1, MC3r (Homo sapiens, UniProt P41968).
T1 construct: 0959 (cAMP); host or cells: CHO cells
Briefly: Radioligand binding, displacement of 125I-NDP-αMSH (Cerep). The settings on record: Example 2, α-MSH analogues. The procedure:
Murine B16-F1 cells expressing MCr1 are used for determination of binding affinity to and agonist activity against the MC1r. Human recombinant CHO cells expressing MC3r, MC4r or MC5r are used for determination of affinity to or agonist activity against the MC3r, MC4r and MC5r, respectively. […] The test items are tested in a concentration range of 10^−13 to 10^−5M.
In general terms: Loss of bound radioactivity is the signal in a displacement assay; it reports binding, not function.

Assay [2] deals with T2, human GLP-1 receptor (Homo sapiens, UniProt P43220).
T2 construct: expressed in transfected cells; host or cells: CHO-K1 cells
Nature of the assay: cAMP production (HTRF) in CHO-K1 cells expressing GLP-1 receptor. It is filed as cell-based. For orientation: cAMP levels reflect the balance of adenylyl cyclase and phosphodiesterase activity.

For assay [3], the target named is T3, human GLP-2 receptor (Homo sapiens, UniProt O95838).
T3 construct: expressed in transfected cells; host or cells: CHO-K1 cells
T3 sequence (O95838 1-553): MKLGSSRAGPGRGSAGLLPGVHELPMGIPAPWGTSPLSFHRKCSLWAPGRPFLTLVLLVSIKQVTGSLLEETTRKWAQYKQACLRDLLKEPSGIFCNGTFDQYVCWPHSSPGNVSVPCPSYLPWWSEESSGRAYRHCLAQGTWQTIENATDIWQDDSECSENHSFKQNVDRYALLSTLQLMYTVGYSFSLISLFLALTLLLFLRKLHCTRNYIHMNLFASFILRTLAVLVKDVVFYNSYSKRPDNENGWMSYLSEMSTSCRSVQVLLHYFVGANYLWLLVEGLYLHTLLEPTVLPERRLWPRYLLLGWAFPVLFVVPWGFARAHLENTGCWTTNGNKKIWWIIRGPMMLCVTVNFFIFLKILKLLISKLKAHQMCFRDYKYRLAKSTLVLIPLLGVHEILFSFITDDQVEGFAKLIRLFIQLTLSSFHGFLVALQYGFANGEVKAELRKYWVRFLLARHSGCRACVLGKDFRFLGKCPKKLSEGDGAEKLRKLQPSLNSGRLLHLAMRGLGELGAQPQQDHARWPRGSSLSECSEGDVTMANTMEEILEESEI
Nature of the assay: cAMP production (HTRF) in CHO-K1 cells expressing GLP-2 receptor. It is filed as cell-based. As to conditions: cAMP dose response curve. How it is done: CHO-K1 cells expressing the human GLP-2 receptor grown in media without antibiotic were detached by gentle flushing with PBS-EDTA (5 mM EDTA), recovered by centrifugation and resuspended in assay buffer (KRH: 5 mM KCl, 1.25 mM MgSO4, 124 mM NaCl, 25 mM HEPES, 13.3 mM Glucose, 1.25 mM KH2PO4, 1.45 mM CaCl2), 0.5 g/l BSA).
12 μl of cells were mixed with 12 μl of the test compound (solubilized in PBS/0.5% BSA and finally diluted from a stock solution of 1 mM) at increasing concentrations in 96 wells plates and then incubated 30 min at room temperature. cAMP production was determined after addition of a lysis buffer and 1 hour incubation, by use of competitive immunoassay using cryptate-labeled anti-cAMP and d2-labeled cAMP (HTRF kit from CisBio) with Delta F percentage values calculated according to the manufacturer specification. Dose response curves were performed in parallel with test compounds, and reference compounds.
The HTRF technology is a titration assay based on a competition between labeled cAMP (exogenous) and cAMP produced by the cell after activation of the […]. The dynamic range of the assay was 3-4 fold meaning that the linear range (which enables conversion from raw data to nM of cAMP) is within that range. […] All experiments were conducted in the presence of the non-selective phosphodiesterase inhibitor IBMX (1 mM in final concentration).
The test compounds were tested in a concentration range from […] to 10^−7M
(§1) Data is presented as mean values.

The target in assay [4] is T4, recombinant human type 2 Formyl peptide receptor (FPR2) (Homo sapiens, UniProt P25090).
T4 construct: expressed in transfected cells
T4 sequence (P25090 1-351): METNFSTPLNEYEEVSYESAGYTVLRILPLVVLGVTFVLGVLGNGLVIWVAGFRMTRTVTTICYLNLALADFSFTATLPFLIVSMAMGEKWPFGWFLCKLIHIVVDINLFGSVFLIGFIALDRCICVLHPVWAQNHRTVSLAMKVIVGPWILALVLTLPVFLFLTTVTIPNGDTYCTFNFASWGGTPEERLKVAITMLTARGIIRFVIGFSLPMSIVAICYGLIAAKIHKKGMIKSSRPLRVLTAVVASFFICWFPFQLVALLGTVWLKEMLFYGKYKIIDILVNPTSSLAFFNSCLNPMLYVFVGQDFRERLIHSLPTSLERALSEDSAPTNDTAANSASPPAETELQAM
Nature of the assay: Aequorin light emission agonist assay in recombinant FPR2 cells. Type of assay: cell-based. As to conditions: at the highest tested dose; read-out: maximal agonist activity, % of max response of internal control Trp-Lys-Tyr-Met-Val-Met. How it is done:
Recombinant cells co-expressing mitochondrial apoaequirin and recombinant human type 2 Formyl peptide receptor (FPR2) were grown for 18 hours prior to testing in media without antibiotics were detached by gentle flushing with PBS-EDTA (5 mM EDTA), recovered by centrifugation and re-suspended in assay buffer (DHEM/HAM's F12 with HEPES and 0.1% protease free BSA). Cells were then incubated for at least 4 hours at room temperature coelenterazine h (from Molecular Probes) before DR studies were conducted.
50 μl of cell suspension was injected on 50 μl of the test or control compound (solubilized in PBS/0.5% BSA and finally diluted from a stock solution of 1 mM) at increasing concentrations in 96 wells plates and then incubated 30 min at room temperature. The resulting light emission was recorded using the Hamamatsu functional drug Screening system 6000 (FDSS6000). For standardization of emission of recorded light across plates and between experiments 100 μM digitonin or 20 μM ATP were added to some of the wells.
The test compounds were tested in a concentration range from 10^−11 to 10^−5M
as §1

In assay [5] the target is T5, FPR2 receptor (Homo sapiens, UniProt P25090).
T5 sequence (P25090 1-351): T4 sequence (P25090 1-351)
The settings on record: cited from earlier work.

Where two headings read alike, the source gives them in different places. Where a SMILES comes first, the peptide text is derived from it.

T2 sequence (P43220 24-463): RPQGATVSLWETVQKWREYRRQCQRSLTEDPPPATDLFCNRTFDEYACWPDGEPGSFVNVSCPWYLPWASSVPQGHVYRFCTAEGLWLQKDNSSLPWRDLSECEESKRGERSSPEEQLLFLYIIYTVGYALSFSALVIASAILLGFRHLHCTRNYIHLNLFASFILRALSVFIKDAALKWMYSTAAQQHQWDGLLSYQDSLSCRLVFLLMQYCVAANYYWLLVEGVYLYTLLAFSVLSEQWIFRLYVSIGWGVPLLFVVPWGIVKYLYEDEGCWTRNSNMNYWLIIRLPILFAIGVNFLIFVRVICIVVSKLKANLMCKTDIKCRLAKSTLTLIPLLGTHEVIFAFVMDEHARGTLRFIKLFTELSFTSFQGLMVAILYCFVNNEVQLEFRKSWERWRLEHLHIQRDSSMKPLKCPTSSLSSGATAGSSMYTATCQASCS
T1 sequence (P41968 whole entry): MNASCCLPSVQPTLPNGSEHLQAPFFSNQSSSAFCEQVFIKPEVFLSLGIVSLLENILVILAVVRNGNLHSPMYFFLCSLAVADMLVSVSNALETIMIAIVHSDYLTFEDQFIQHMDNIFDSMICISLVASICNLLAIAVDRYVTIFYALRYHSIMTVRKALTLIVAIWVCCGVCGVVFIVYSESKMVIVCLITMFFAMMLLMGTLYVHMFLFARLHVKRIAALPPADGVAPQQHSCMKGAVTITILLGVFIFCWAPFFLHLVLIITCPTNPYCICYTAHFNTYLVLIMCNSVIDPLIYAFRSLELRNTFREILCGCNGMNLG

A word on the Ki: it is a measure of affinity in units of concentration, obtained from inhibition or displacement. Lower therefore signals a stronger hold on the target. Take `CSCC[C@H](NC(=O)[C@H](CO)NC(=O)[C@H](Cc1ccc(O)cc1)NC(=O)[C@H](CO)NC(=O)[C@H](CCCCNC(=O)[C@H](CCCCN)NC(=O)[C@H](CCCCN)NC(C)=O)NC(C)=O)C(=O)N[C@@H](CCC(=O)O)C(=O)N[C@@H](Cc1c[nH]cn1)C(=O)N[C@@H](Cc1ccccc1)C(=O)N[C@@H](CCCNC(=N)N)C(=O)N[C@@H](Cc1c[nH]c2ccccc12)C(=O)NCC(=O)N[C@@H](CCCCN)C(=O)N1CCC[C@H]1C(=O)N[C@H](C(N)=O)C(C)C` [Analogue 1]: the Ki in assay [1] worked out at 24 nM. In addition, the Emax in assay [2] (CHO-K1; read-out: Max efficacy in % of control peptide) was found to be 101%.
A word on the EC50: it is the concentration giving half of the maximal effect. A low value points to higher potency in that assay. With `CC[C@H](C)[C@H](NC(=O)[C@H](Cc1ccccc1)NC(=O)[C@H](CCC(=O)O)NC(=O)[C@H](CCCCN)NC(=O)[C@H](C)NC(=O)[C@H](C)NC(=O)[C@H](CCC(N)=O)NC(=O)CNC(=O)[C@H](CCC(=O)O)NC(=O)[C@H](CC(C)C)NC(=O)[C@H](Cc1ccc(O)cc1)NC(=O)[C@H](CO)NC(=O)[C@H](CO)NC(=O)[C@@H](NC(=O)[C@H](CC(=O)O)NC(=O)[C@H](CO)NC(=O)[C@@H](NC(=O)[C@H](Cc1ccccc1)NC(=O)[C@@H](NC(=O)CNC(=O)[C@H](CCC(=O)O)NC(=O)CNC(=O)[C@H](Cc1c[nH]cn1)NC(C)=O)[C@@H](C)O)[C@@H](C)O)C(C)C)C(=O)N[C@@H](C)C(=O)N[C@@H](Cc1c[nH]c2ccccc12)C(=O)N[C@@H](CC(C)C)C(=O)N[C@H](C(=O)N[C@@H](CCCCN)C(=O)NCC(=O)N[C@@H](CCCNC(=N)N)C(=O)NCC(=O)N[C@@H](CCCCNC(=O)[C@H](CCCCN)NC(=O)[C@H](CCCCN)NC(C)=O)C(N)=O)C(C)C` [Analogue 2], in assay [2], the response was half-maximal at 0.04 nM (EC50). Further, the Emax in assay [2] (CHO-K1, read-out: Max efficacy in % of control peptide) stood at 102%.
In the case of `CC[C@H](C)[C@H](NC(=O)[C@H](Cc1ccccc1)NC(=O)[C@H](CC(=O)O)NC(=O)[C@H](CCCNC(=N)N)NC(=O)[C@H](C)NC(=O)[C@H](C)NC(=O)[C@H](CC(C)C)NC(=O)[C@H](CC(N)=O)NC(=O)[C@H](CC(=O)O)NC(=O)[C@H](CC(C)C)NC(=O)[C@@H](NC(=O)[C@@H](NC(=O)[C@H](CC(N)=O)NC(=O)[C@H](CCSC)NC(=O)[C@H](CCC(=O)O)NC(=O)[C@H](CC(=O)O)NC(=O)[C@H](CO)NC(=O)[C@H](Cc1ccccc1)NC(=O)[C@H](CO)NC(=O)CNC(=O)[C@H](CC(=O)O)NC(=O)[C@H](C)NC(=O)[C@@H](N)Cc1c[nH]cn1)[C@@H](C)O)[C@@H](C)CC)C(=O)N[C@@H](CC(N)=O)C(=O)N[C@@H](Cc1c[nH]c2ccccc12)C(=O)N[C@@H](CC(C)C)C(=O)N[C@H](C(=O)N[C@@H](CCC(N)=O)C(=O)N[C@H](C(=O)N[C@@H](CCCCN)C(=O)N[C@H](C(=O)N[C@H](C(=O)N[C@@H](CC(=O)O)C(=O)N[C@@H](CCCNC(=N)N)C(=O)O)[C@@H](C)O)[C@@H](C)CC)[C@@H](C)O)[C@@H](C)CC` [GLP-2 (1-34), reference compound], the “Hill Slope” value in assay [3] was 0.78.
For the compound `CSCC[C@H](NC(=O)[C@H](C)NC(C)=O)C(=O)N[C@H](C(=O)N[C@@H](CO)C(=O)N[C@@H](CCC(=O)O)C(=O)N[C@@H](Cc1ccccc1)C(=O)N[C@@H](CC(C)C)C(=O)N[C@@H](CCCCNC(=O)[C@H](CCCCN)NC(=O)[C@H](CCCCNC(=O)[C@H](CCCCN)NC(C)=O)NC(C)=O)C(=O)N[C@@H](CCC(N)=O)C(=O)N[C@@H](C)C(=O)N[C@@H](Cc1c[nH]c2ccccc12)C(N)=O)C(C)C` [analogue 7] (HELM PEPTIDE1{[ac].A.M.V.S.E.F.L.K.Q.A.W.[am]}|PEPTIDE2{[CC(=O)N[C@@H](CCCCN)C(=O)NCCCC[C@H](NC(C)=O)C(=O)[*:2]].K}$PEPTIDE1,PEPTIDE2,9:R3-2:R2$$$V2.0), in assay [4], the Emax is 85%.
Take “Ac-Ala-Met-Val-Ser-Glu-Phe-Leu-Lys-Gln-Ala-Trp-NH2 (Ac-AMVSEFLKQAW-NH2; listed as Homo sapiens) [Control peptide 2]”: the “agonism at the FPR2 receptor as described in the literature” value in assay [5] was “described as agonist to the FPR2 receptor- none of them as significantly potent”.
For “Ac-Ala-Met-Val-Ser-Glu-Phe-Leu-Lys-Gln-Ala-Trp-Phe-Ile-Glu-Asn-Glu-Glu-Gln-Glu-Tyr-Val-Gln-Thr-Val-Lys-OH (Ac-AMVSEFLKQAWFIENEEQEYVQTVK-OH; listed as Homo sapiens) [Control peptide 1]”, the “agonism at the FPR2 receptor as described in the literature” value in assay [5] is given as “described as agonist to the FPR2 receptor- none of them as significantly potent”.
